Results taken from patent US7354904B2, “Bacteriocin inducer peptides” (priority 2005, dated 2008).

What was measured:
[1] = test system: Streptococcus cricetus LWP 760; assay: Influence of signal peptide on bacteriocin 760 production, flask culture (fraction protein at 215 nm, activity by Spot Test against C. jejuni and S. enteritidis); assay type: cell-based
[2] = test system: S. enteritidis; assay: Spot Test, antagonistic activity of isolated signal peptides; assay type: cell-based; conditions: isolated signal peptide
Experimental: (§1) The antagonistic activity of the bacteriocins produced when using the signal peptide and an inducer strain of bacteria against C. jejuni and S. enteritidis was assessed using a Spot Test. The steps included taking various concentrations of pure preparation (μg/ml) of the bacteriocin in approximately 10 microliters of volume plated onto blood-supplemented Campylobacter agar or Nutrient agar (MPA or Meta Peptone Agar) previously seeded with cells of target bacteria. Plates containing cultures of C. jejuni were grown at about 42° C., under microaerobic conditions. Plates containing S. enteritidis were grown at about 37° C. under aerobic conditions. Activity of the bacteriocin was expressed in arbitrary units (AU) per one milliliter of the preparation at which a visible zone of inhibition of the growth of culture appears (Henderson et al., Archives of Biochemistry and Biophysics, Volume 295, 5-12, 1992; herein incorporated by reference). Specific activity can also expressed as arbitrary units per milligram of pure bacteriocin.
(§2) Its activity was about 200 AU/ml and its molecular weight was about 2.5 kDa, as determined by SDS-PAGE electrophoresis. The isoelectric point (pI) was about 7.9 (FIGS. 1A and 1B).
(§3) Its molecular weight was about 3.1 kDa as measured by SDS-PAGE and the isoelectric point (pI) was about 8.1 (FIGS. 2A and 2B).
(§4) Its molecular weight was about 2.1 kDa as determined by SDS-PAGE electrophoresis and its isoelectric point was about 8.9 (FIGS. 3A and 3B).

[3] = test system: C. jejuni; assay: as above; assay type: cell-based, Campylobacter jejuni; conditions: isolated signal peptide
Experimental: as §1, §2, §3, §4

[4] = test system: Lactobacillus salivarius PVD-32; assay: Influence of signal peptide on bacteriocin OR-7 production, flask culture (fraction protein at 215 nm, activity by Spot Test against C. jejuni and S. enteritidis); assay type: cell-based
[5] = Isoelectric point by isoelectrofocusing; assay type: physicochemical
From the text: FIGS. 1A and 1B are photographs showing the direct detection of signal peptide and bacteriocin OR-7 after SDS-PAGE (A) and isoelectrofocusing (B). […] In FIG. 1A Lane 1-Molecular Mass Markers LMW Range 2,100-12,500 (Amersham Pharmacia Biotech): 2,100; 5,780; 8,400; 12,500 Da. […] Lane 3 contained pI standards (Protein Test Mixture, I Marker Proteins, Serva): 10.0, 9.2, 8.1, 6.9, 5.5, 4.3.
FIGS. 2A and 2B are photographs showing direct detection of signal peptide and bacteriocin 50-52 after SDS-PAGE (A) and isoelectrofocusing (B). […] Lane 3 contained pI standards (Protein Test Mixture, I Marker Proteins, Serva): 10.0, 8.1, 7.9, 6.4, 5.5, 4.3, 4.1, and 3.8.
FIGS. 3A and 3B are photographs showing the direct detection of signal peptide and bacteriocin 760 after SDS-PAGE(A) and isoelectrofocusing (B). […] Lane 3 contained pI standards (Protein Test Mixture, I Marker Proteins, Serva): 10.0, 8.1, 7.9, 6.4, 5.5, 4.3, 4.1, and 3.8.
At the end of 14 hours the supernatant from the cultures was placed into 500 ml centrifuge flasks with about one milliliter of regenerated Sepharose SP Fast Flow (v/v 500: 1). This was incubated for approximately 1 hour at room temperature with stirring. The suspension was then washed with about 100 ml of a 0.2 M TRIS-HCl buffer pH approximately 6.4. The bacteriocins were eluted by centrifugation with about 100 ml of approximately 0.2 M K2HPO4, pH of about 5.8 at about 7,000×g for approximately 10 minutes. Antagonistic activity of the bacteriocin fractions against C. jejuni and S. enteritidis was assessed using a Spot Test as described above. The level of purity of the bacteriocin fractions was determined by SDS-PAGE. The isoelectric points of the fractions were determined by isoelectric focusing. Concentrations of protein for all bacteriocin fractions were determined at 215 nm using a spectrophotometer.

[6] = LWP 760 + LWP320, 0.001 mg peptide
[7] = LWP 760 + LWP 320, 0.001 mg peptide added after about 2 hours
[8] = LWP 760 + LWP 320, 0.001 mg peptide added after about 4 hours
[9] = LWP 760 + LWP 320, 0.001 mg peptide added after about 6 hours
[10] = LWP 760 + LWP 320, 0.01 mg peptide
[11] = LWP 760 + LWP 320, 0.01 mg peptide added after about 2 hours
[12] = LWP 760 + LWP 320, 0.01 mg peptide added after about 4 hours
[13] = LWP 760 + LWP 320, 0.01 mg peptide added after about 6 hours
[14] = LWP 760 + LWP 320, 0.1 mg peptide
[15] = LWP 760 + LWP 320, 0.1 mg peptide added after about 2 hours
[16] = LWP 760 + LWP 320, 0.1 mg peptide added after about 4 hours
[17] = LWP 760 + LWP 320, 0.1 mg peptide added after about 6 hours
[18] = LWP 760, no inducer, 0.001 mg peptide
[19] = LWP 760, no inducer, 0.001 mg peptide added after about 2 hours
[20] = LWP 760, no inducer, 0.001 mg peptide added after about 4 hours
[21] = LWP 760, no inducer, 0.001 mg peptide added after about 6 hours
[22] = LWP 760, no inducer, 0.01 mg peptide
[23] = LWP 760, no inducer, 0.01 mg peptide added after about 2 hours
[24] = LWP 760, no inducer, 0.01 mg peptide added after about 4 hours
[25] = LWP 760, no inducer, 0.01 mg peptide added after about 6 hours
[26] = LWP 760, no inducer, 0.1 mg peptide
[27] = LWP 760, no inducer, 0.1 mg peptide add after about 6 hours
[28] = LWP 760, no inducer, 0.1 mg peptide added after about 2 hours
[29] = LWP 760, no inducer, 0.1 mg peptide added after about 4 hours
[30] = 10% B-B, producer PVD-32 + inducer LWP-252, LWP 760 peptide 0.1 mg

## WNKYKTNWVLSVCNTGCACAAVKGLT (listed as Streptococcus cricetus) [LWP 760 Signal Peptide, signal peptide isolated from Streptococcus cricetus LWP 760, stimulates bacteriocin 760 production]
[1]; [6]
  Activity: 1,638,840 AU/ml
  Increase in amount of protein vs. control: 1.06
  Protein Concentration: 0.32 mg/mL
  Protein Produced from 1 liter Culture Fluid: 105.6 mg
  Specific Activity: 5,121,375 Au/mg
[1]; [7]
  Activity: 1,638,840 AU/ml
  Increase in amount of protein vs. control: 1.06
  Protein Concentration: 0.32 mg/mL
  Protein Produced from 1 liter Culture Fluid: 105.6 mg
  Specific Activity: 5,121,375 Au/mg
[1]; [8]
  Activity: 1,638,840 AU/ml
  Increase in amount of protein vs. control: 1.06
  Protein Concentration: 0.32 mg/mL
  Protein Produced from 1 liter Culture Fluid: 105.6 mg
  Specific Activity: 5,121,375 Au/mg
[1]; [9]
  Activity: 1,638,840 AU/ml
  Increase in amount of protein vs. control: 1.06
  Protein Concentration: 0.32 mg/mL
  Protein Produced from 1 liter Culture Fluid: 105.6 mg
  Specific Activity: 5,121,375 Au/mg
[1]; [10]
  Activity: 6,533,600 AU/ml
  Increase in amount of protein vs. control: 5.2
  Protein Concentration: 1.56 mg/mL
  Protein Produced from 1 liter Culture Fluid: 514.8 mg
  Specific Activity: 4,201,025 Au/mg
[1]; [11]
  Activity: 6,553,600 AU/ml
  Increase in amount of protein vs. control: 5.2
  Protein Concentration: 1.56 mg/mL
  Protein Produced from 1 liter Culture Fluid: 514.8 mg
  Specific Activity: 4,201,025 Au/mg
[1]; [12]
  Activity: 13,107,200 AU/ml
  Increase in amount of protein vs. control: 7
  Protein Concentration: 2.1 mg/mL
  Protein Produced from 1 liter Culture Fluid: 693 mg
  Specific Activity: 6,241,523 Au/mg
[1]; LWP 760 + LWP 320, 0.01 mg peptide added after about 4 hours, listed as signal peptide from LWP 760
  Protein Produced from 1 liter Culture Fluid: approximately 693 Mg
[1]; [13]
  Activity: 6,553,600 AU/ml
  Increase in amount of protein vs. control: 5.2
  Protein Concentration: 1.56 mg/mL
  Protein Produced from 1 liter Culture Fluid: 514.8 mg
  Specific Activity: 4,201,025 Au/mg
[1]; [14]
  Activity: 1,638,840 AU/ml
  Increase in amount of protein vs. control: 0.9
  Protein Concentration: 0.28 mg/mL
  Protein Produced from 1 liter Culture Fluid: 92.4 mg
  Specific Activity: 5,853,000 Au/mg
[1]; [15]
  Activity: 1,638,840 AU/ml
  Increase in amount of protein vs. control: 1.16
  Protein Concentration: 0.35 mg/mL
  Protein Produced from 1 liter Culture Fluid: 115.5 mg
  Specific Activity: 4,682,400 Au/mg
[1]; [16]
  Activity: 1,638,840 AU/ml
  Increase in amount of protein vs. control: 1.16
  Protein Concentration: 0.35 mg/mL
  Protein Produced from 1 liter Culture Fluid: 115.5 mg
  Specific Activity: 4,682,400 Au/mg
[1]; [17]
  Activity: 1,638,840 AU/ml
  Increase in amount of protein vs. control: 1.16
  Protein Concentration: 0.35 mg/mL
  Protein Produced from 1 liter Culture Fluid: 115.5 mg
  Specific Activity: 4,682,400 Au/mg
[1]; [18]
  Activity: 1,638,840 AU/ml
  Increase in amount of protein vs. control: 1
  Protein Concentration: 0.30 mg/mL
  Protein Produced from 1 liter Culture Fluid: 99 mg
  Specific Activity: 5,462,666 Au/mg
[1]; [19]
  Activity: 1,638,840 AU/ml
  Increase in amount of protein vs. control: 1
  Protein Concentration: 0.30 mg/mL
  Protein Produced from 1 liter Culture Fluid: 99 mg
  Specific Activity: 5,462,666 Au/mg
[1]; [20]
  Activity: 1,638,840 AU/ml
  Increase in amount of protein vs. control: 1
  Protein Concentration: 0.30 mg/mL
  Protein Produced from 1 liter Culture Fluid: 99 mg
  Specific Activity: 5,462,666 Au/mg
[1]; [21]
  Activity: 1,638,840 AU/ml
  Increase in amount of protein vs. control: 1
  Protein Concentration: 0.30 mg/mL
  Protein Produced from 1 liter Culture Fluid: 99 mg
  Specific Activity: 5,462,666 Au/mg
[1]; [22]
  Activity: 1,638,840 AU/ml
  Increase in amount of protein vs. control: 1
  Protein Concentration: 0.3 mg/mL
  Protein Produced from 1 liter Culture Fluid: 99 mg
  Specific Activity: 5,462,666 Au/mg
[1]; [23]
  Activity: 1,638,840 AU/ml
  Increase in amount of protein vs. control: 1
  Protein Concentration: 0.30 mg/mL
  Protein Produced from 1 liter Culture Fluid: 99 mg
  Specific Activity: 5,462,666 Au/mg
[1]; [24]
  Activity: 1,638,840 AU/ml
  Increase in amount of protein vs. control: 1
  Protein Concentration: 0.30 mg/mL
  Protein Produced from 1 liter Culture Fluid: 99 mg
  Specific Activity: 5,462,666 Au/mg
[1]; [25]
  Activity: 1,638,840 AU/ml
  Increase in amount of protein vs. control: 1
  Protein Concentration: 0.30 mg/mL
  Protein Produced from 1 liter Culture Fluid: 99 mg
  Specific Activity: 5,462,666 Au/mg
[1]; [26]
  Activity: 1,638,840 AU/ml
  Increase in amount of protein vs. control: 1.03
  Protein Concentration: 0.31 mg/mL
  Protein Produced from 1 liter Culture Fluid: 102.3 mg
  Specific Activity: 5,286,580 Au/mg
[1]; [27]
  Activity: 1,638,840 AU/ml
  Increase in amount of protein vs. control: 1.03
  Protein Concentration: 0.31 mg/mL
  Protein Produced from 1 liter Culture Fluid: 102.3 mg
  Specific Activity: 5,286,580 Au/mg
[1]; [28]
  Activity: 1,638,840 AU/ml
  Increase in amount of protein vs. control: 1.03
  Protein Concentration: 0.31 mg/mL
  Protein Produced from 1 liter Culture Fluid: 102.3 mg
  Specific Activity: 5,286,580 Au/mg
[1]; [29]
  Increase in amount of protein vs. control: 1.03
  Protein Concentration: 0.31 mg/mL
  Protein Produced from 1 liter Culture Fluid: 102.3 mg
  Specific Activity: 5,286,580 Au/mg
[2]
  antagonistic activity: did not possess antagonistic activity
[3]
  antagonistic activity: did not possess antagonistic activity
[4]; [30]
  Activity: 102,400 AU/ml
  Protein Concentration: 0.19 Mg/ml
  Protein increase vs. Control: 0.95
  Specific Activity: 538,947 AU/mg
  mg protein/liter: 62.7 mg protein/liter
[4]; signal peptide of another strain added to PVD-32 + LWP-252
  yield of bacteriocin OR-7 versus the control: does not increase
[5]
  isoelectric point (pI): about 8.9
